We go through 25 compounds from patent publication US12116356B2, “N-heterocyclic five-membered ring-containing capsid protein assembly inhibitor, pharmaceutical composition thereof, and use thereof” (CHIA TAI TIANQING PHARMACEUTICAL GROUP CO., LTD., priority 2018, dated 2024).

Like-named read-outs stand apart in the source and are kept apart here.

Common to all, as to assay type: cell-based
For one data set, the system named is HBV DNA in HepAD38 cells. Nature of the data set: In vitro cell HBV DNA inhibitory activity (anti-HBV activity) in HepAD38 cells. As to conditions: Hepatitis B virus. As for the experimental part:
(§1) A bottle of HepG2.2.15 or HepAD38 cells in good exponential growth state was taken, washed once by adding 5 mL PBS, and then thereto was added 3 mL trypsin. After digesting at room temperature for 5 min, 2 mL trypsin was discarded, and then the sample was placed in a cell culture incubator and digested for 10 min. The cells were taken out from time to time and observed under a microscope (whether the cells were individually round and there was no adhesion between the cells). 10 mL complete medium was added to terminate the digestion. After pipetting into a single cell suspension, 10 μL of the cell suspension was taken out for cell counting with a cell counter, and then diluted with a complete medium and adjusted to a cell density of 1*10^5 cells/mL. Then the cell suspension was seeded at 1 mL/well in a 24-well plate with a multi-channel pipette (the 24-well plate was coated with 50 μg/mL Collagen I solution in advance), and cultured in a constant temperature CO2 incubator for 48 h.
(§2) Different compounds dissolved in DMSO were subjected to two-fold gradient dilution (10 concentrations in total) with complete medium. The compound was added, and fresh medium containing the compound was used to replace the spent medium every 72 hours. The cells were treated with the compound for 6 days. After the supernatant was siphoned off, 300 μL lysate (10 mM Tris-HCl, 1 mM EDTA, and 1% NP-40) was added to each well. After lysing at room temperature for 10 min, DNA was extracted, and HBV DNA in the intracellular viral capsid was measured by real-time fluorescence quantitative PCR. The inhibition rate was calculated based on the Ct value, and the EC50 value was calculated by the four-parameter method.

In data set [1] the test system is HBV DNA in HepG2.2.15 cells. Nature of the data set: In vitro cell HBV DNA inhibitory activity (anti-HBV activity) in HepG2.2.15 cells. As to conditions: Hepatitis B virus. As for the experimental part: as §1, §2
Data set [2] in a line: In vitro cytotoxicity (CCK-8) in HepAD38 cells. As to conditions: human. As for the experimental part: (§3) A bottle of HepG2.2.15 or HepAD38 cells in good exponential growth state was taken, washed once by adding 5 mL PBS, and then thereto was added 3 mL trypsin. The sample was digested in a cell culture incubator, and taken out from time to time and observed under a microscope. When the cells just fell off, 1 mL trypsin was discarded. The residual liquid was placed in a cell culture incubator at 37° C. and digested for 8-15 min. The cells were taken out and observed under a microscope (whether the cells were individually round and there was no adhesion between the cells). 5 mL MEM medium was added for cell resuspension. The cells were then subjected to cell counting with a cell counter, diluted with a complete medium, and adjusted to a cell density of 2*10^5 cells/mL. Then the cells were seeded at 100 μL/well in a 96-well plate with a multi-channel pipette (the 96-well plate was coated with 50 μg/mL Collagen I solution in advance), and cultured in a constant temperature CO2 incubator for 24 h. The cells were treated by drug administration, and fresh medium containing the compound was used to replace the spent medium every 3 days. To control wells was added a drug-free medium containing 0.5% DMSO, and a control well containing a common medium was set up. 6 days after the administration, CCK-8 was added at 10 μL/well. After 1 to 2 hours, the absorbance was detected with microplate reader at 450 nm, and the inhibition rate and the CC50 were calculated.

Data set [3] in a line: In vitro cytotoxicity (CCK-8) in HepG2.2.15 cells. The conditions noted are these: human. As for the experimental part:
as §3

[4] abbreviates: 144 h, anti-HBV activity in HepAD38 cells, 6 days treatment, intracellular capsid HBV DNA by qPCR, read-out: EC50.
Setting [5] is: 144 h, anti-HBV activity in HepG2.2.15 cells, 6 days treatment, intracellular capsid HBV DNA by qPCR, read-out: EC50.

Regarding `Cc1c(C(=O)Nc2ccc(F)c(C#N)c2)c(C)n(C)c1C(=O)C(=O)N[C@H]1C[C@H](O)C1` [Example 3, N-(3-cyano-4-fluorophenyl)-5-(2-((trans-3-hydroxycyclobutyl)amino)-2-oxoacetyl)-1,2,4-trimethyl-1H-pyrrole-3-carboxamide], in the data set with HBV DNA in HepAD38 cells (setting [4]), the EC50 (in general, the concentration at which the effect is half-maximal) was in the range of 50 to 100 nM.
On to `Cc1c(C(=O)Nc2ccc(F)c(C#N)c2)c(C)n(C)c1C(=O)C(=O)N[C@H]1C[C@@H](O)C1` [Example 4, N-(3-cyano-4-fluorophenyl)-5-(2-((cis-3-hydroxycyclobutyl)amino)-2-oxoacetyl)-1,2,4-trimethyl-1H-pyrrole-3-carboxamide], for which the EC50 with HBV DNA in HepAD38 cells (setting [4]) was 10 to 50 nM.
Same read-out and setting: under `Cc1c(C(=O)Nc2ccc(F)c(C#N)c2)c(C)n(C)c1C(=O)C(=O)NC1COC1` [Example 5, N-(3-cyano-4-fluorophenyl)-1,2,4-trimethyl-5-(2-(oxetan-3-ylamino)-2-oxoacetyl)-1H-pyrrole-3-carboxamide] stands 10 to 50 nM.
On the same count and under the same terms, under `Cc1c(C(=O)Nc2ccc(F)c(C#N)c2)c(C)n(C)c1C(=O)C(=O)N[C@H]1C[C@@H](CO)C1` [Example 10, N-(3-cyano-4-fluorophenyl)-5-(2-((cis-3-(hydroxymethyl)cyclobutyl)amino)-2-oxoacetyl)-1,2,4-trimethyl-1H-pyrrole-3-carboxamide] stands 10 to 50 nM; under `Cc1c(C(=O)Nc2ccc(F)c(C#N)c2)cn(C)c1C(=O)C(=O)NC(C)(C)C` [Example 14, 5-(2-(tert-butylamino)-2-oxoacetyl)-N-(3-cyano-4-fluorophenyl)-1,4-dimethyl-1H-pyrrole-3-carboxamide], 10 to 50 nM.
Take `Cc1c(C(=O)Nc2ccc(F)c(C#N)c2)cc(C(=O)C(=O)NC(C)(C)C)n1C` [Example 16, 5-(2-(tert-butylamino)-2-oxoacetyl)-N-(3-cyano-4-fluorophenyl)-1,2-dimethyl-1H-pyrrole-3-carboxamide]: the EC50 in data set [1] (setting [5]) was < 10 nM. Also, in data set [2], the CC50 (in general, the concentration at which the toxic effect on the cells reaches its halfway point) at 6 days was > 100000 nM.
As to `Cn1c(Br)c(C(=O)Nc2ccc(F)c(C#N)c2)c(Br)c1C(=O)C(=O)NC(C)(C)C` [Example 20, 2,4-dibromo-5-(2-(tert-butylamino)-2-oxoacetyl)-N-(3-cyano-4-fluorophenyl)-1-methyl-1H-pyrrole-3-carboxamide], the EC50 in the data set with HBV DNA in HepAD38 cells (setting [4]) fell in the range of 10 to 50 nM; in data set [1] (setting [5]) it was 50 to 100 nM.
As for `Cc1c(C(=O)Nc2ccc(F)c(C#N)c2)c(C)n(C)c1C(=O)C(=O)N[C@@H]1CCOC1` [Example 21], the EC50 in the data set with HBV DNA in HepAD38 cells (setting [4]) lay in the range of 10 to 50 nM; in data set [1] (setting [5]), 50 to 100 nM. Further, the CC50 at 6 days in data set [2] and in data set [3] was > 100000 nM each time.
`Cc1c(C(=O)Nc2ccc(F)c(C#N)c2)c(C)n(C)c1C(=O)C(=O)N[C@H]1CCOC1` [Example 22]: the EC50 (with HBV DNA in HepAD38 cells (setting [4]); in data set [1] (setting [5])) was 10 to 50 nM throughout. Moreover, the CC50 at 6 days in data set [2] and in data set [3] was > 100000 nM each time.
With `Cc1c(C(=O)Nc2ccc(F)c(C#N)c2)c(C)n(C)c1C(=O)C(=O)NC1(C)CCOC1` (stereo not shown) [Example 23], the EC50 (with HBV DNA in HepAD38 cells (setting [4]); in data set [1] (setting [5])) was < 10 nM throughout. Besides, the CC50 at 6 days in data set [2] and in data set [3] was > 100000 nM throughout.
Consider `CNC(=O)C1(NC(=O)C(=O)c2c(C)c(C(=O)Nc3ccc(F)c(C#N)c3)c(C)n2C)CC(F)(F)C1` [Example 28], for which the EC50 in the data set with HBV DNA in HepAD38 cells (HePAD38, 144 h) was 10 to 50 nM.
Turning to `Cc1c(C(=O)Nc2ccc(F)c(C#N)c2)c(Cl)n(C)c1C(=O)C(=O)NC1(C)CCOCC1` [Example 31], the EC50 in the data set on HBV DNA in HepAD38 cells (setting [4]) is < 10 nM.
On the same count and under the same terms, under `Cc1c(C(=O)Nc2ccc(F)c(C#N)c2)c(Cl)n(C)c1C(=O)C(=O)NC1(C(F)(F)F)COC1` [Example 32] stands < 10 nM; under `Cc1c(C(=O)Nc2ccc(F)c(C#N)c2)c(Cl)n(C)c1C(=O)C(=O)NC1(C)COC1` [Example 34, 2-chloro-N-(3-cyano-4-fluorophenyl)-1,4-dimethyl-5-(2-((3-methyloxetan-3-yl)amino)-2-oxoacetyl)-1H-pyrrole-3-carboxamide], 10 to 50 nM; under `Cc1c(C(=O)Nc2ccc(F)c(Cl)c2)c(Cl)n(C)c1C(=O)C(=O)N[C@@H](C)C(F)(F)F` [Example 35, (S)-2-chloro-N-(3-chloro-4-fluorophenyl)-1,4-dimethyl-5-(2-oxo-2-((1,1,1-trifluoroprop-2-yl)amino)acetyl)-1H-pyrrole-3-carboxamide], < 10 nM.
As to `Cc1c(C(=O)Nc2ccc(F)c(Cl)c2)c(C)n(C)c1C(=O)C(=O)NC1(C)CCOCC1` [Example 36, N-(3-chloro-4-fluorophenyl)-1,2,4-trimethyl-5-(2-((4-methyltetrahydro-2H-pyran-4-yl)amino)-2-oxoacetyl)-1H-pyrrole-3-carboxamide], in the data set on HBV DNA in HepAD38 cells (setting [4]), the EC50 was < 10 nM.
On the same count and under the same terms, under `Cc1c(C(=O)Nc2ccc(F)c(Cl)c2)c(C)n(C)c1C(=O)C(=O)N[C@@H](C)C(F)(F)F` [Example 37, (S)—N-(3-chloro-4-fluorophenyl)-1,2,4-trimethyl-5-(2-oxo-2-((1,1,1-trifluoroprop-2-yl)amino)acetyl)-1H-pyrrole-3-carboxamide] stands < 10 nM.
In the case of `Cc1c(C(=O)Nc2ccc(F)c(F)c2)c(C)n(C)c1C(=O)C(=O)N[C@@H](C)C(F)(F)F` [Example 38, (S)—N-(3,4-difluorophenyl)-1,2,4-trimethyl-5-(2-oxo-2-((1,1,1-trifluoroprop-2-yl)amino)acetyl)-1H-pyrrole-3-carboxamide], the EC50 (in the data set with HBV DNA in HepAD38 cells (setting [4]); in data set [1] (setting [5])) was < 10 nM in each case.
As to `Cc1c(C(=O)Nc2ccc(F)cc2)c(C)n(C)c1C(=O)C(=O)N[C@@H](C)C(F)(F)F` [Example 39], the EC50 (with HBV DNA in HepAD38 cells (setting [4]); in data set [1] (setting [5])) was < 10 nM in each case. Also, in data set [3], the CC50 at 6 days is > 100000 nM.
For the compound `Cc1c(C(=O)Nc2ccc(F)c(C#N)c2)c(C)n(C)c1C(=O)C(=O)NC1(C)CC(O)C1` (stereo not shown) [Example 46, N-(3-cyano-4-fluorophenyl)-5-(2-((3-hydroxy-1-methylcyclobutyl)amino)-2-oxoacetyl)-1,2,4-trimethyl-1H-pyrrole-3-carboxamide], the EC50 is 10 to 50 nM with HBV DNA in HepAD38 cells (setting [4]) and < 10 nM in data set [1] (setting [5]).
Take `Cc1c(C(=O)Nc2cc(F)c(F)c(F)c2)c(C)n(C)c1C(=O)C(=O)NC1(C)COC1` [Example 47, 1,2,4-trimethyl-5-(2-((3-methyloxetan-3-yl)amino)-2-oxoacetyl)-N-(3,4,5-trifluorophenyl)-1H-pyrrole-3-carboxamide]: the EC50 (in the data set on HBV DNA in HepAD38 cells (setting [4]); in data set [1] (setting [5])) was < 10 nM in each case.
Regarding `Cn1cc(C(=O)Nc2ccc(F)c(C#N)c2)cc1C(=O)C(=O)NC1(C(F)(F)F)COC1` [Example 50, N-(3-cyano-4-fluorophenyl)-1-methyl-5-(2-oxo-2-((3-(trifluoromethyl)oxetan-3-yl)amino)acetyl)-1H-pyrrole-3-carboxamide], the 50% effective concentration (EC50) with HBV DNA in HepAD38 cells (setting [4]) lay in the range of 50 to 100 nM.
`Cc1c(C(=O)Nc2ccc(F)c(C#N)c2)c(F)c(C(=O)C(=O)N[C@@H](C)C(F)(F)F)n1C` [Example 54, (S)—N-(3-cyano-4-fluorophenyl)-4-fluoro-1,2-dimethyl-5-(2-oxo-2-((1,1,1-trifluoroprop-2-yl)amino)acetyl)-1H-pyrrole-3-carboxamide]: the EC50 in the data set on HBV DNA in HepAD38 cells (HePAD38, 144 h) was 10 to 50 nM; in data set [1] (HepG2.2.15, 144 h), < 10 nM.
The like results for `Cc1c(C(=O)Nc2ccc(F)c(C#N)c2)c(Cl)n(C)c1C(=O)C(=O)NC1(C)CC(O)C1` (stereo not shown) [Example 55, 2-chloro-N-(3-cyano-4-fluorophenyl)-5-(2-((3-hydroxy-1-methylcyclobutyl)amino)-2-oxoacetyl)-1,4-dimethyl-1H-pyrrole-3-carboxamide] were, in that order, 10 to 50 nM and 10 to 50 nM.
With `[2H]C([2H])([2H])n1c(C)c(C(=O)Nc2ccc(F)c(C#N)c2)c(C)c1C(=O)C(=O)N[C@@H](C)C(F)(F)F` [Example 60, (S)—N-(3-cyano-4-fluorophenyl)-2,4-dimethyl-1-(methyl-d3)-5-(2-oxo-2-((1,1,1-trifluoroprop-2-yl)amino)acetyl)-1H-pyrrole-3-carboxamide], the EC50 with HBV DNA in HepAD38 cells (setting [4]) is < 10 nM.
